The results in this text go back to US10874743B2, “IRAK degraders and uses thereof” (Kymera Therapeutics, Inc., priority 2017, dated 2020).

This experiment deals with T1, IRAK4 (Homo sapiens, UniProt Q9NWZ3).
T1 sequence (Q9NWZ3 1-460): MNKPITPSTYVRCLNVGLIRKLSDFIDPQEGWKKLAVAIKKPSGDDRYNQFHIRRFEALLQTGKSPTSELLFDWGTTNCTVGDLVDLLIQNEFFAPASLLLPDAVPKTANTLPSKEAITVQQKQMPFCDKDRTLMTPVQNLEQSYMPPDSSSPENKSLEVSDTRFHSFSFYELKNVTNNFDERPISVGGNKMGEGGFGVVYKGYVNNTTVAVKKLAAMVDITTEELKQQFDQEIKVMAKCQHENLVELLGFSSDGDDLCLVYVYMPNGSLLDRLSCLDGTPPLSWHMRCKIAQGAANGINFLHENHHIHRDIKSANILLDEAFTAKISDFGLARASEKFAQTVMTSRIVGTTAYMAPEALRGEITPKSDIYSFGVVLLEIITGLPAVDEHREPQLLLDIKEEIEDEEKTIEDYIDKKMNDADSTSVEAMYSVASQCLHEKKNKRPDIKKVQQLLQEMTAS
Kind of experiment: OCI-LY-10 degradation assay (western blot, % IRAK4 degraded after 4 hours). The experiment is classed as cell-based. More on the design: endogenous in cells; host or cells: OCI-LY10. The settings on record: OCI-LY10 cells; for OCI-LY10 % IRAK4 Degradation: IRAK4 degraded after 4 hours, western blot; for OCI-LY10 % IRAK4 Degradation (0.01 uM) / OCI-LY10 % IRAK4 Degradation (0.1 uM) / OCI-LY10 % IRAK4 Degradation (1 uM): 4 hours; for OCI-LY10 % IRAK4 Degradation (0.01 uM): 0.01 uM compound; for OCI-LY10 % IRAK4 Degradation (0.1 uM): 0.1 uM compound; for OCI-LY10 % IRAK4 Degradation (1 uM): 1 uM compound. In short, it runs like this:
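IRAK4 loss after 4 h at 37° C was scored A (>50%), B (>20-50%) or C (<20%) from infrared western blots of RIPA lysates, 20-25 μg protein per lane. Compound was applied at 0.003-10 μM final to OCI-LY10 cells cultured in RPMI-1640 with 20% FBS and 55 μM 2-ME.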
Background: A western blot detects proteins with antibodies after separation by electrophoresis.

As for `NC(=O)[C@@H](O)C[C@H]1CCc2sc3ncnc(O[C@H]4CC[C@H](N5CCN(CCOCCOCCNc6cccc7c6C(=O)N(C6CCC(=O)NC6=O)C7=O)CC5)CC4)c3c21` (stereo partly drawn) [I-90, (2S)-3-[(8R)-1-[4-[4-[2-[2-[2-[[2-(2,6-dioxo-3-piperidyl)-1,3-dioxo-isoindolin-4-yl]amino]ethoxy]ethoxy]ethyl]piperazin-1-yl]cyclohexoxy]-7,8-dihydro-6H-cyclopenta[4,5]thieno[1,2-c]pyrimidin-8-yl]-2-hydroxy-propanamide], the “OCI-LY10 % IRAK4 Degradation” value was “B (>20-50% degradation)”.

As to `O=C1CCC(N2C(=O)c3cccc(CCCNCc4ccc(-n5cc(NC(=O)c6coc(-c7ccnc(NCC8CC8)c7)n6)c(C(F)F)n5)cc4)c3C2=O)C(=O)N1` (centres unmarked) [I-357], the “OCI-LY10 % IRAK4 Degradation (0.01 uM)” value is recorded as “C (<20% degradation)”, the “OCI-LY10 % IRAK4 Degradation (0.1 uM)” value is given as “C (<20% degradation)” and the “OCI-LY10 % IRAK4 Degradation (1 uM)” value is “C (<20% degradation)”.

Take `CN(CCCCCCCCCc1cccc2c1C(=O)N(C1CCC(=O)NC1=O)C2=O)C(=O)c1ccc(-n2cc(NC(=O)c3coc(-c4ccnc(NCC5CC5)c4)n3)c(C(N)=O)n2)cc1` (centres unmarked) [I-230]: the “OCI-LY10 % IRAK4 Degradation (0.01 uM)” value was “C (<20% degradation)”, the “OCI-LY10 % IRAK4 Degradation (0.1 uM)” value is “C (<20% degradation)” and the “OCI-LY10 % IRAK4 Degradation (1 uM)” value is “C (<20% degradation)”.

Regarding `O=C1CCC(N2C(=O)c3cccc(CCOCCN4CCC(n5cc(NC(=O)c6coc(-c7ccnc(NCC8CC8)c7)n6)c(C(F)F)n5)CC4)c3C2=O)C(=O)N1` (centres unmarked) [I-257], the “OCI-LY10 % IRAK4 Degradation (0.01 uM)” value was “C (<20% degradation)”, the “OCI-LY10 % IRAK4 Degradation (0.1 uM)” value is reported as “C (<20% degradation)” and the “OCI-LY10 % IRAK4 Degradation (1 uM)” value is reported as “C (<20% degradation)”.

For the molecule `CC(C)(OCCOCCOCCOCCNc1cccc2c1C(=O)N(C1CCC(=O)NC1=O)C2=O)C(F)CNC(=O)c1cnc(-n2ncc3cc(C#N)cnc32)cc1NC1CC1` (centres unmarked) [I-73], the “OCI-LY10 % IRAK4 Degradation” value was “C (<20% degradation)”.

As for `O=C1CCC(N2C(=O)c3ccc(NC4CN(CCOCCOCCNCc5ccc(-n6cc(NC(=O)c7coc(-c8ccnc(NCC9CC9)c8)n7)c(C(F)F)n6)cc5)C4)cc3C2=O)C(=O)N1` (centres unmarked) [I-339], the “OCI-LY10 % IRAK4 Degradation (0.01 uM)” value is reported as “C (<20% degradation)”, the “OCI-LY10 % IRAK4 Degradation (0.1 uM)” value was “B (>20-50% degradation)” and the “OCI-LY10 % IRAK4 Degradation (1 uM)” value is “A (>50% degradation)”.

For the molecule `N#Cc1cnc2c(cnn2-c2cc(NC3CC3)c(C(=O)NCC(F)CCOCCOCCOCCNc3cccc4c3C(=O)N(C3CCC(=O)NC3=O)C4=O)cn2)c1` (centres unmarked) [I-88], the “OCI-LY10 % IRAK4 Degradation” value was “C (<20% degradation)”.

Turning to `CC(COCC(F)CNC(=O)c1cnc(Nc2ccc3cnccc3n2)cc1NC1CC1)OCCOCCNc1cccc2c1C(=O)N(C1CCC(=O)NC1=O)C2=O` (centres unmarked) [I-70], the “OCI-LY10 % IRAK4 Degradation” value is reported as “C (<20% degradation)”.

Consider `CC[C@@H]1[C@H](F)C(=O)N[C@@H]1COc1ncc(C#Cc2ccc(C(=O)NCCOCCOCCOCCNc3cccc4c3C(=O)N(C3CCC(=O)NC3=O)C4=O)cc2)c2cc(C(N)=O)c(OC)cc12` (stereo partly drawn) [I-126, 4-[2-[4-[2-[2-[2-[2-[[2-(2,6-Dioxo-3-piperidyl)-1,3-dioxo-isoindolin-4-yl]amino]ethoxy]ethoxy]ethoxy]ethylcarbamoyl]phenyl]ethynyl]-1-[[(2S,3S,4S)-3-ethyl-4-fluoro-5-oxo-pyrrolidin-2-yl]methoxy]-7-methoxy-isoquinoline-6-carboxamide], for which the “OCI-LY10 % IRAK4 Degradation” value was “B (>20-50% degradation)”.

For the molecule `O=C1CCC(N2C(=O)c3cccc(NCCOCCOCCOCCOCCNC(=O)c4ccc(-n5cc(NC(=O)c6coc(-c7ccnc(NCC8CC8)c7)n6)c(C(F)F)n5)cc4)c3C2=O)C(=O)N1` (centres unmarked) [I-212], the “OCI-LY10 % IRAK4 Degradation (0.01 uM)” value is “B (>20-50% degradation)”, the “OCI-LY10 % IRAK4 Degradation (0.1 uM)” value was “A (>50% degradation)” and the “OCI-LY10 % IRAK4 Degradation (1 uM)” value is listed as “A (>50% degradation)”.

For `O=C1CCC(N2C(=O)c3cccc(CCCN4CCC(n5cc(NC(=O)c6coc(-c7ccnc(NCC8CC8)c7)n6)c(C(F)F)n5)CC4)c3C2=O)C(=O)N1` (centres unmarked) [I-259], the “OCI-LY10 % IRAK4 Degradation (0.01 uM)” value was “C (<20% degradation)”, the “OCI-LY10 % IRAK4 Degradation (0.1 uM)” value is on record as “C (<20% degradation)” and the “OCI-LY10 % IRAK4 Degradation (1 uM)” value is recorded as “C (<20% degradation)”.
